Reference: article PMC10342533, “Novel Tetrazole Derivatives Targeting Tubulin Endowed with Antiproliferative Activity against Glioblastoma Cells” (International Journal of Molecular Sciences, 2023)
Where “and” joins values, the source holds several entries; their conditions need not be identical. Equal entries are not always repeated.

Key:
[1] = system: HEK-293 (embryonic kidney); test: Cell growth inhibition, MTT assay, non-tumor HEK-293; format: cell-based; conditions: Homo sapiens, HEK293, 72 h, non-tumorigenic cell line
Procedure, shortened: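 Viability of non-tumor HEK-293 cells determined by MTT 72 h after compound exposure at concentrations from 10^-10 to 10^-2 M; untreated cells served as negative controls. Triplicate measurements, three independent experiments; IC50 values derived from the concentration-response data.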

[2] = system: U87 MG cells; test: Cell cycle analysis by flow cytometry (PI), U87 MG; format: cell-based, human; conditions: 100 nM
Procedure: (§1) To assess how tubulin polymerization inhibition and the effects on the microtubule network affect the cell cycle, flow cytometry experiments were performed on HeLa, MCF7, and U87 MG cells 24, 48, and 72 h after treatments with compounds 10, 12, and 14 at 100 nM using propidium iodide (PI) for DNA staining and untreated cells as the negative control.
(§2) HeLa, MCF7, or U87 MG cells were seeded in 6-well plates (8·10^4 cells/mL, 2 mL/well) and incubated in complete DMEM Medium (see above) at 37 °C and 5% CO2 atmosphere for 24 h. Then, the cells were treated with selected compounds (10, 12, or 14) at 100 nM, and untreated cells were used as negative controls. Cells were collected 24, 48, or 72 h following treatment and fixed overnight in ethanol/PBS (7:3) at 4 °C. After two washes with PBS, cells were suspended in PBS and incubated in darkness overnight with 0.2 mg/mL RNase A (Sigma-Aldrich, St. Louis, MO, USA), 50 µg/mL propidium iodide (Sigma-Aldrich, St. Louis, MO, USA), and Triton 10x at room temperature. A BD Accuri™ C6 Plus Flow Cytometer (BD Biosciences, Franklin Lakes, NJ, USA) cytometer was used to analyze the samples, and BD Accuri™ C6 Software (version 1.0.264.21) was used for data analysis.

[3] = system: MCF7 cells; test: Cell cycle analysis by flow cytometry (PI), MCF7; format: cell-based, human; conditions: 100 nM
Procedure: as §1, §2

[4] = system: microtubule network of MCF7 cells; test: Immunofluorescence confocal microscopy of microtubule network, MCF7; format: cell-based, human; conditions: MCF7, 24 h, 100 nM, α-tubulin immunofluorescence
Procedure: To elucidate if the interaction of the compounds with tubulin inferred from the in vitro TPI experiments has consequences on cellular microtubules, we studied the effect of representative compounds on the microtubule network of HeLa, MCF7, and U87 MG cells 24 h after treatment via the use of immunofluorescence confocal microscopy through α-tubulin and nuclei labeling.
HeLa, MCF7, and U87 MG cells (8·10^4 cells/mL) were grown on 0.01% poly-L-lysine pre-coated square glass coverslips (22 mm^2), deposited on 6-well plates (1 coverslip/well), and incubated in complete DMEM medium (see above) at 37 °C and 5% CO2 atmosphere for 24 h. Then, the cells were incubated for 24 h in the presence or absence (negative controls) of selected compounds (10, 12, or 14) at 100 nM. After drug treatment incubation, medium was removed, and coverslips were washed three times with PBS, fixed with 4% formaldehyde in PBS for 10 min, permeabilized with 0.5% Triton X-100, (Sigma-Aldrich, St. Louis, MO, USA) in PBS for 90 s at 4 °C, blocked with 10% BSA in PBS for 30 min, and washed with PBS four times. The coverslips were incubated for 1 h with anti-α-tubulin mouse monoclonal antibody (Sigma-Aldrich, St. Louis, MO, USA), diluted 1:200 in PBS containing 3% BSA, washed four times with PBS, and then incubated in darkness with the fluorescent secondary antibody Alexa Fluor 488 goat anti-mouse IgG (Molecular Probes, Invitrogen, Eugenen, OR, USA) and diluted 1:400 in PBS containing 1% BSA for 1.5 h. The coverslips were washed four times with PBS, and a drop of ProLong™ Gold Antifade Mountant containing DAPI (ThermoFisher, Waltham, MA, USA) was added for cell nuclei staining. The samples were analyzed via confocal microscopy, which was performed by using a LEICA SP5 microscope DMI-6000V model coupled to a LEICA LAS AF software computer.

[5] = biological target: T1, microtubular protein isolated from calf brains (bovine brain tubulin) (Bos taurus, UniProt P81947+Q6B856); test: Tubulin polymerization inhibition (TPI); format: biochemical; conditions: in vitro tubulin polymerization, mean ± SD
T1 construct: from tissue; host or cells: calf (bovine) brain
T1 sequence (Q6B856 whole entry): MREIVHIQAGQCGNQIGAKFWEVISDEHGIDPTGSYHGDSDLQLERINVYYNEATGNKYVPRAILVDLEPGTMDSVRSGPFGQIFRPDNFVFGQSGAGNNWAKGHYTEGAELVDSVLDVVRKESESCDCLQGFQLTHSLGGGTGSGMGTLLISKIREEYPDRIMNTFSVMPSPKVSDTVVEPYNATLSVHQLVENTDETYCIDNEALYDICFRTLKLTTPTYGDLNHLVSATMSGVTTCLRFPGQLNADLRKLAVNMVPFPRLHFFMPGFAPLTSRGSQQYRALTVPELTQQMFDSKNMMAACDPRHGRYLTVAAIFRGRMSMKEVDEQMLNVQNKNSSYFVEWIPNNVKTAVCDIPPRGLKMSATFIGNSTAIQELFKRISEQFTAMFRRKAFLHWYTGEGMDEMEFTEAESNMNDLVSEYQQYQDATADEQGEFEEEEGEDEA
T1 sequence (P81947 whole entry): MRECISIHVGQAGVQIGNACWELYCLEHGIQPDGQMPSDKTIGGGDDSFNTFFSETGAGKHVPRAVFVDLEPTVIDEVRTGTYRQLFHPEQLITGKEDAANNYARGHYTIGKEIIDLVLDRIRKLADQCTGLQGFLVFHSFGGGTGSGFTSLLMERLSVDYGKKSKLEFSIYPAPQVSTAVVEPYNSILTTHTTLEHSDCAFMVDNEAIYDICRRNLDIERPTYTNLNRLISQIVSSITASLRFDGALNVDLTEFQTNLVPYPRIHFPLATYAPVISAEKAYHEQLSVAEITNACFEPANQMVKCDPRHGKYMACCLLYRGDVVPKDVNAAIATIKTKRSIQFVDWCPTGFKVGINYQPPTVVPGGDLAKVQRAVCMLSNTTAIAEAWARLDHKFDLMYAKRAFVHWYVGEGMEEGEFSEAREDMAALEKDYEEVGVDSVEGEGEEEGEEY

SMILES: CSc1cc(-c2nnnn2-c2ccc3c(ccn3C)c2)cc(Cl)n1 [Compound 10, 5-(5-(2-chloro-6-(methylsulfanyl)pyridin-4-yl)-1H-tetrazol-1-yl)-1-methyl-1H-indole]
- IC50 [1]: 4390 nM
- G0/G1 population ([2]; 24 h): 21.1 % Cells
- G2/M population ([2]; 24 h): 47.8 % Cells
- S population ([2]; 24 h): 8.3 % Cells
- SubG0/G1 population ([2]; 24 h): 23.5 % Cells
- G0/G1 population ([2]; 48 h): 11.0 % Cells
- G2/M population ([2]; 48 h): 31.6 % Cells
- S population ([2]; 48 h): 9.0 % Cells
- SubG0/G1 population ([2]; 48 h): 49.2 % Cells
- G0/G1 population ([2]; 72 h): 10.5 % Cells
- G2/M population ([2]; 72 h): 17.0 % Cells
- S population ([2]; 72 h): 2.9 % Cells
- G0/G1 population ([3]; MCF7, 24 h): 22.5 % Cells
- G2/M population ([3]; MCF7, 24 h): 65.8 % Cells
- S population ([3]; MCF7, 24 h): 3.9 % Cells
- SubG0/G1 population ([3]; MCF7, 24 h): 7.7 % Cells
- G0/G1 population ([3]; MCF7, 48 h): 16.9 % Cells
- G2/M population ([3]; MCF7, 48 h): 58.1 % Cells
- S population ([3]; MCF7, 48 h): 4.6 % Cells
- SubG0/G1 population ([3]; MCF7, 48 h): 20.4 % Cells
- G0/G1 population ([3]; MCF7, 72 h): 13.7 % Cells
- G2/M population ([3]; MCF7, 72 h): 54.8 % Cells
- S population ([3]; MCF7, 72 h): 4.4 % Cells
- SubG0/G1 population ([3]; MCF7, 72 h): 27 % Cells and 27.2 % Cells
- effect on microtubule network [4]: severe microtubule network disruption
- IC50 [5]: 1500 ± 100 nM

SMILES: Cn1cc(C=O)c2cc(-n3nnnc3-c3cc(Cl)nc(Cl)c3)ccc21 [Compound 12, 5-(5-(2,6-dichloropyridin-4-yl)-1H-tetrazol-1-yl)-1-methyl-1H-indole-3-carbaldehyde]
- IC50 [1]: 3080 nM
- G0/G1 population ([2]; 24 h): 27.3 % Cells
- G2/M population ([2]; 24 h): 37.8 % Cells
- S population ([2]; 24 h): 9.6 % Cells
- SubG0/G1 population ([2]; 24 h): 26.1 % Cells
- G0/G1 population ([2]; 48 h): 11.9 % Cells
- G2/M population ([2]; 48 h): 27.4 % Cells
- S population ([2]; 48 h): 10.3 % Cells
- SubG0/G1 population ([2]; 48 h): 51.1 % Cells
- G0/G1 population ([2]; 72 h): 12.2 % Cells
- G2/M population ([2]; 72 h): 10.0 % Cells
- S population ([2]; 72 h): 7.8 % Cells
- G0/G1 population ([3]; MCF7, 24 h): 19.4 % Cells
- G2/M population ([3]; MCF7, 24 h): 68.6 % Cells
- S population ([3]; MCF7, 24 h): 7.0 % Cells
- SubG0/G1 population ([3]; MCF7, 24 h): 5.2 % Cells
- G0/G1 population ([3]; MCF7, 48 h): 16.4 % Cells
- G2/M population ([3]; MCF7, 48 h): 62.9 % Cells
- S population ([3]; MCF7, 48 h): 7.9 % Cells
- SubG0/G1 population ([3]; MCF7, 48 h): 13.1 % Cells
- G0/G1 population ([3]; MCF7, 72 h): 15.0 % Cells
- G2/M population ([3]; MCF7, 72 h): 59.1 % Cells
- S population ([3]; MCF7, 72 h): 10.8 % Cells
- SubG0/G1 population ([3]; MCF7, 72 h): 15 % Cells and 15.5 % Cells
- effect on microtubule network [4]: severe microtubule network disruption
- IC50 [5]: 1300 ± 100 nM

SMILES: CSc1cc(-c2nnnn2-c2ccc3c(c2)c(C=O)cn3C)cc(Cl)n1 [Compound 14, 5-(5-(2-chloro-6-(methylsulfanyl)pyridin-4-yl)-1H-tetrazol-1-yl)-1-methyl-1H-indole-3-carbaldehyde]
- IC50 [1]: 2270 nM
- G0/G1 population ([2]; 24 h): 23.7 % Cells
- G2/M population ([2]; 24 h): 41.3 % Cells
- S population ([2]; 24 h): 8.5 % Cells
- SubG0/G1 population ([2]; 24 h): 27.2 % Cells
- G0/G1 population ([2]; 48 h): 12.5 % Cells
- G2/M population ([2]; 48 h): 32.1 % Cells
- S population ([2]; 48 h): 10.6 % Cells
- SubG0/G1 population ([2]; 48 h): 45.4 % Cells
- G0/G1 population ([2]; 72 h): 11.1 % Cells
- G2/M population ([2]; 72 h): 9.6 % Cells
- S population ([2]; 72 h): 6.9 % Cells
- G0/G1 population ([3]; MCF7, 24 h): 22.7 % Cells
- G2/M population ([3]; MCF7, 24 h): 66.0 % Cells
- S population ([3]; MCF7, 24 h): 5.9 % Cells
- SubG0/G1 population ([3]; MCF7, 24 h): 5.2 % Cells
- G0/G1 population ([3]; MCF7, 48 h): 16.8 % Cells
- G2/M population ([3]; MCF7, 48 h): 58.4 % Cells
- S population ([3]; MCF7, 48 h): 6.9 % Cells
- SubG0/G1 population ([3]; MCF7, 48 h): 17.9 % Cells
- G0/G1 population ([3]; MCF7, 72 h): 19.1 % Cells
- G2/M population ([3]; MCF7, 72 h): 38.7 % Cells
- S population ([3]; MCF7, 72 h): 8.1 % Cells
- SubG0/G1 population ([3]; MCF7, 72 h): 34 % Cells and 34.6 % Cells
- effect on microtubule network [4]: severe microtubule network disruption
- IC50 [5]: 800 ± 100 nM
